The results in this text go back to paper PMC6385358, “Discovery of ((1,2,4-oxadiazol-5-yl)pyrrolidin-3-yl)ureidyl derivatives as selective non-steroidal agonists of the G-protein coupled bile acid receptor-1” (Scientific Reports, 2019).

The first assay has as its target T1, GPBAR1 (Homo sapiens, UniProt Q8TDU6).
T1 construct: expressed in transfected cells; host or cells: HEK-293T
T1 sequence (Q8TDU6 1-330): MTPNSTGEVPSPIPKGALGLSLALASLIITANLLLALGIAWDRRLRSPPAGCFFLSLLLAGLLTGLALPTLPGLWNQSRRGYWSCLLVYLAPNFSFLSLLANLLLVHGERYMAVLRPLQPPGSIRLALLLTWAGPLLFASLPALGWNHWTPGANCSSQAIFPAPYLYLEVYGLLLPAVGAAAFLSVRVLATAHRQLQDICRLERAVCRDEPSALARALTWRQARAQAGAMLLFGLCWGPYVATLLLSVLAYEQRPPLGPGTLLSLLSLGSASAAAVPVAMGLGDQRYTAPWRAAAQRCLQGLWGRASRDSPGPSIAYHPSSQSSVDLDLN
In words: Luciferase reporter (CRE) transactivation assay in HEK-293T cells transfected with GPBAR1. In kind it is cell-based. As to conditions: 10 μM, compared to TLCA. The method, then: The activity of compounds 1–14 on GPBAR1 was evaluated in a luciferase reporter assay using HEK-293T cells transfected with GPBAR1. The efficacy of tested compounds (Table 1) was measured using taurolithocholic acid (TLCA) as GPBAR1 reference compound[10],[11]. Each compound was tested at the concentration of 10 μM and transactivation activity of TLCA on a cAMP responsive element (CRE) (i.e. TGR5/GPBAR1) was considered equal to 100%. […] Thus, 9 and 10 (Table 1) turned out to be the most promising derivatives considering their low EC50 values and high activity efficacy. To further characterize the pharmacological properties of these compounds, we expanded their in vitro profile to common off-targets for bile acid receptor ligands.
Transactivation assay on HEK-293T cells was performed to investigate GPBAR1 activation, using compound 1–14 and TLCA as positive control at 10 µM, as previously reported.
Supplementary Figure S4. HEK-293T cells were transiently transfected with GPBAR1 and a reporter gene containing a cAMP responsive element in front of the luciferase gene. Cells were stimulated with compounds A-L (10 μM). TLCA (10 μM) was used as positive control. Luciferase activity served as a measure of the rise in intracellular cAMP following activation of GPBAR1. In all panels, results are expressed as mean ± standard error. ^∗p < 0.05 versus not treated cells (NT).
Background: Reporter assays use an easily measured gene product as a stand-in for the process of interest.
As for `O=C(Nc1ccc(C(F)(F)F)cc1)N[C@@H]1CN[C@H](c2nc(-c3ccccc3)no2)C1` [Compound 4], the “GPBAR1 agonist activity in transactivation assay” value was “moderate GPBAR1 agonist activity”.

The same assay, now with this note: HEK-293T, maximal transactivation of CRE, compound 10 μM vs TLCA 10 μM = 100%; HEK-293T; read-out: Efficacy (% vs TLCA).
Consider `O=C(Nc1ccc(C(F)(F)F)cc1)N[C@@H]1CN[C@H](c2nc(-c3ccccc3)no2)C1` [Compound 4], for which the Emax at 10 µM fell in the range of 58 to 121%.

With `[N-]=[N+]=N[C@@H]1CN[C@H](c2nc(-c3ccccc3)no2)C1` [Compound 2], the Emax at 10 µM was in the range of 58 to 121%.

Turning to `Cc1ccc(NC(=O)N[C@@H]2CN[C@H](c3nc(-c4ccccc4)no3)C2)cc1` [Compound 6], the Emax at 10 µM fell in the range of 58 to 121%.

Consider `O[C@H]1CN[C@H](c2nc(-c3ccccc3)no2)C1` [Compound 1], for which the Emax at 10 µM was in the range of 58 to 121%.

For the compound `O=C(NCc1ccccc1)N[C@@H]1CN[C@H](c2nc(-c3ccccc3)no2)C1` [Compound 11], the Emax at 10 µM lay in the range of 58 to 121%.

Take `N[C@@H]1CN[C@H](c2nc(-c3ccccc3)no2)C1` [Compound 3]: the Emax at 10 µM was 58 to 121%.
